Experimental data: patent US10828315B2 (Madrigal Pharmaceuticals, Inc., priority 2013, dated 2020)
Like-named read-outs stand apart in the source and are kept apart here.

Assays:
[1] = Retention of docetaxel SDC-TRAPs in plasma and tumor (Example 53); type: in vivo, Female SCID Mouse (H1975); details: dosed SDC-TRAP-0426 25 mg/10 mL/kg IV, DRD, Table 4
Protocol: Blood samples (˜300 μL) were collected by cardiac puncture and immediately centrifuged at 6000 rpm for 8 minutes at approximately 4° C. Resulting plasma samples (˜150 μL) were stored at −80° C. until analysis.
Following sacrifice, tumors were immediately dissected on ice, flash frozen in liquid N2, and stored at −80° C. until analysis.
To 55 μL of plasma samples, 200 μL of methanol containing 150-250 ng/mL internal standard(s) was added. Samples were vortex mixed for approximately 1.5 minutes at ambient temperature and then centrifuged at 4400 rpm for 10 mm at approximately 4° C. The resulting supernatants (175 μL) were transferred to a 96-well plate and dried under nitrogen at 40° C. Dried samples were reconstituted with 100 μL 50/50 (v/v) water/methanol, vortex mixed and 10 μL were injected into LC-MS/MS.
Tumor samples were weighed and homogenized in 5 volume of ice-cold phosphate buffered saline on ice using a hand-held homogenizer. To 55 μL of tumor homogenate samples, 200 μL of methanol containing 150-250 ng/mL internal standard(s) was added. Samples were vortex mixed for approximately 1.5 minutes at ambient temperature and then centrifuged at 4400 rpm for 10 min at approximately 4° C. The resulting supernatants (175 μL) were transferred to a 96-well plate and dried under nitrogen at 40° C. Dried samples were reconstituted with 100 μL 50/50 (v/v) water/methanol, vortex mixed and 10 μL were injected into LC-MS/MS.
Plasma and tumor samples were analyzed by LC-MS/MS using an Agilent 1100 HPLC (Agilent Technologies, Santa Clara, Calif.) interfaced to an API 4000 tandem mass spectrometer (Applied Biosystems, Foster City, Calif.). […] The flow rate was 0.5 mL/min. […] Quantitation for each analyte was done by extrapolation from a standard curve ranging from 2.50 to 50000 nM with 1/x^2 weighting.
Blood samples (˜300 μL) were collected by cardiac puncture and immediately centrifuged at 6000 rpm for 8 minutes at approximately 4° C. Resulting plasma samples (˜150 μL) were transferred to Eppendorf tubes containing approximately 5-10 mg of NaF, vortex mixed, and stored at −80° C. until analysis.
Following sacrifice tumors were immediately dissected on ice, flash frozen in liquid N2, and stored at −80° C. until analysis.
To 60 μL of plasma samples, 25 μL of 75/25 (v/v) water/acetonitrile containing 100 ng/mL internal standard(s) and 200 μL of acetonitrile were added. Samples were vortex mixed for approximately 2 minutes at ambient temperature and then centrifuged at 4400 rpm for 10 min at approximately 4° C. The resulting supernatants (300 μL) were transferred to a 96-well plate and dried under nitrogen at 40° C. Dried samples were reconstituted with 500 μL 60/40 (v/v) water/acetonitrile, vortex mixed and 10 μL were injected into LC-MS/MS.
Tumor samples were weighed and homogenized in 3 volume of ice-cold phosphate buffered saline on ice using a hand-held homogenizer. To 60 μL of tumor homogenate samples, 25 μL of 75/25 (v/v) water/acetonitrile containing 100 ng/mL internal standard(s) and 200 μL of acetonitrile were added. […] The resulting supernatants (200 μL) were transferred to a 96-well plate and dried under nitrogen at 40° C. Dried samples were reconstituted with 600 μL 60/40 (v/v) water/acetonitrile, vortex mixed and 10 μL were injected into LC-MS/MS.
Plasma and tumor samples were analyzed by LC-MS/MS using an Agilent 1100 HPLC (Agilent Technologies, Santa Clara, Calif.) interfaced to an API 4000 tandem mass spectrometer (Applied Biosystems, Foster City, Calif.). The separation of analytes were performed on a Symmetry Shield Sum C18 (2.1×100 mm; 100 Å) column (Waters, Milford, Mass.) with a run time of 5.0 mm per sample using the mobile phase consisted of 0.1% formic acid (A) and acetonitrile containing 0.1% formic acid (B). […] Quantitation for each analyte was done by extrapolation from a standard curve ranging from 1.00 to 25000 ng/mL with 1/x^2 weighting.

[2] = mouse, plasma, 1 h
[3] = female, SCID, mouse, in vivo

SMILES	% Remaining (1 h) ([2]; 10 µM) [%]	other results
CC(=O)O[C@@]12CO[C@@H]1C[C@H](O)[C@@]1(C)C(=O)[C@H](O)C3=C(C)[C@@H](OC(=O)[C@H](OC(=O)CCC(=O)N4CCC(N5CCC(CCn6ccc7cc(-n8c(O)nnc8-c8cc(C(C)C)c(O)cc8O)ccc76)CC5)CC4)[C@@H](NC(=O)OC(C)(C)C)c4ccccc4)C[C@@](O)([C@@H](OC(=O)c4ccccc4)[C@H]21)C3(C)C [SDC-TRAP-0426]		concentration at 6 h ([1]; female, SCID, mouse, in vivo, of analyte at 6 h, read-out: Plasma Conc.): 0.0311 µM; concentration at 24 h ([1]; female, SCID, mouse, in vivo, of analyte at 24 h, read-out: Plasma Conc.): 0.0111 µM; Tumor Conc. ([1]; of analyte at 6 h): 0.375 nmol/g of tissue; Tumor Conc. ([1]; of analyte at 24 h): 0.256 nmol/g of tissue; Plasma Conc. ([1]; of analyte at 48 h): BQL; Tumor Conc. ([1]; of analyte at 48 h): 0.337 nmol/g of tissue
CCc1c2c(nc3ccc(OS(=O)(=O)c4cccc(C(=O)N5CCN(Cc6ccc(-n7c(O)nnc7-c7cc(C(C)C)c(O)cc7O)cc6)CC5)c4)cc13)-c1cc3c(c(=O)n1C2)COC(=O)C3(O)CC (centres unmarked) [SDC-TRAP-0389, 4,11-diethyl-4-hydroxy-3,14-dioxo-3,4,12,14-tetrahydro-1H-pyrano[3′,4′:6,7]indolizino[1,2-b]quinolin-9-yl 3-(4-(4-(3-(2,4-dihydroxy-5-isopropylphenyl)-5-hydroxy-4H-1,2,4-triazol-4-yl)benzyl)piperazine-1-carbonyl)benzenesulfonate]	77.7	
CC(C)c1cc(-c2nnc(O)n2-c2ccc(CC3CCN(CC(=O)Nc4cccc5c4CN(C4CCC(=O)NC4=O)C5=O)CC3)cc2)c(O)cc1O (centres unmarked) [SDC-TRAP-0116, 2-(4-(4-(3-(2,4-dihydroxy-5-isopropylphenyl)-5-hydroxy-4H-1,2,4-triazol-4-yl)benzyl)piperidin-1-yl)-N-(2-(2,6-dioxopiperidin-3-yl)-1-oxoisoindolin-4-yl) acetamide]	91.1	Tumor Conc. ([3]; 1 h): 13.7 nmol/g of tissue; Tumor Conc. ([3]; 6 h): 6.09 nmol/g of tissue; Tumor Conc. ([3]; 24 h): 2.78 nmol/g of tissue; Tumor Conc. ([3]; 48 h): 1.46 nmol/g of tissue; Tumor Conc. ([3]; […]): 17.7 nmol/g of tissue
CC(C)c1cc(-c2nnc(O)n2-c2ccc(CN3CCN(C(=O)O[C@H]4CC[C@@]5(C)C(=CC[C@@H]6[C@@H]5CC[C@]5(C)C(c7cccnc7)=CC[C@@H]65)C4)CC3)cc2)c(O)cc1O [SDC-TRAP-0150, (3S,8R,9S,10R,13S,14S)-10,13-dimethyl-17-(pyridin-3-yl)-2,3,4,7,8,9,10,11,12,13,14,15-dodecahydro-1H-cyclopenta[a]phenanthren-3-yl 4-(4-(3-(2,4-dihydroxy-5-isopropylphenyl)-5-hydroxy-4H-1,2,4-triazol-4-yl)benzyl) piperazine-1-carboxylate]	103	% Remaining (1 h) ([2]; 10 μM): 103%
CC(C)c1cc(-c2nnc(O)n2-c2ccc3c(ccn3CCCC3CCN(C(=O)c4ncn5c(=O)n(C)nnc45)CC3)c2)c(O)cc1O [SDC-TRAP-0345, 8-(4-(3-(5-(3-(2,4-dihydroxy-5-isopropylphenyl)-5-hydroxy-4H-1,2,4-triazol-4-yl)-1H-indol-1-yl)propyl)piperidine-1-carbonyl)-3-methylimidazo[5,1-d][1,2,3,5]tetrazin-4(3H)-one]	63.8	
CCNC(=O)c1nnc(-c2cc(C(C)C)c(O)cc2O)n1-c1ccc(CN2CCC(C(=O)N3CCC(COC(=O)Nc4cccc5c4CN(C4CCC(=O)NC4=O)C5=O)CC3)CC2)cc1 (centres unmarked) [SDC-TRAP-0124, (1-(1-(4-(3-(2,4-Dihydroxy-5-isopropylphenyl)-5-(ethylcarbamoyl)-4H-1,2,4-triazol-4-yl)benzyl)piperidine-4-carbonyl)piperidin-4-yl)methyl (2-(2,6-dioxopiperidin-3-yl)-1-oxoisoindolin-4-yl)carbamate]	112	
CCNC(=O)c1nnc(-c2cc(C(C)C)c(O)cc2O)n1-c1ccc(Oc2ccc(C(=O)N3CCC(COC(=O)Nc4cccc5c4CN(C4CCC(=O)NC4=O)C5=O)CC3)cc2)cc1 (centres unmarked) [SDC-TRAP-0125, (1-(4-(4-(3-(2,4-Dihydroxy-5-isopropylphenyl)-5-(ethylcarbamoyl)-4H-1,2,4-triazol-4-yl)phenoxy)benzoyl)piperidin-4-yl)methyl (2-(2,6-dioxopiperidin-3-yl)-1-oxoisoindolin-4-yl)carbamate]	99.4	
COc1cc(O)c(-c2nnc(C(=O)NC(C)C)n2-c2ccc(CN3CCC(C(=O)Nc4cccc5c4CN(C4CCC(=O)NC4=O)C5=O)CC3)cc2)cc1C(C)C (centres unmarked) [SDC-TRAP-0115, N-(2-(2,6-dioxopiperidin-3-yl)-1-oxoisoindolin-4-yl)-1-(4-(3-(2-hydroxy-5-isopropyl-4-methoxyphenyl)-5-(isopropylcarbamoyl)-4H-1,2,4-triazol-4-yl)benzyl)piperidine-4-carboxamide]	85.9	
CC(C)c1cc(-c2nnc(O)n2-c2ccc(CN3CCN(c4cnc(C(=O)Nc5cccc6c5CN(C5CCC(=O)NC5=O)C6=O)cn4)CC3)c(F)c2)c(O)cc1O (centres unmarked) [SDC-TRAP-0170, 5-(4-(4-(3-(2,4-dihydroxy-5-isopropylphenyl)-5-hydroxy-4H-1,2,4-triazol-4-yl)-2-fluorobenzyl)piperazin-1-yl)-N-(2-(2,6-dioxopiperidin-3-yl)-1-oxoisoindolin-4-yl)pyrazine-2-carboxamide]	94.1	
CC(C)c1cc(-c2nnc(O)n2-c2ccc(CN3CCN(C(=O)c4ccc(COC(=O)Nc5cccc6c5CN(C5CCC(=O)NC5=O)C6=O)cc4)CC3)c(F)c2)c(O)cc1O (centres unmarked) [SDC-TRAP-0157, 4-(4-(4-(3-(2,4-dihydroxy-5-isopropylphenyl)-5-hydroxy-4H-1,2,4-triazol-4-yl)-2-fluorobenzyl)piperazine-1-carbonyl)benzyl (2-(2,6-dioxopiperidin-3-yl)-1-oxoisoindolin-4-yl)carbamate]	81.4	
CCNC(=O)c1nnc(-c2cc(C(C)C)c(O)cc2O)n1-c1ccc(CN2CCC(C(=O)N3CCC(n4cc(-c5cnc(N)c(O[C@H](C)c6c(Cl)ccc(F)c6Cl)c5)cn4)CC3)CC2)cc1 [SDC-TRAP-0134, (R)-4-(4-((4-(4-(4-(6-amino-5-(1-(2,6-dichloro-3-fluorophenyl)ethoxy)pyridin-3-yl)-1H-pyrazol-1-yl)piperidine-1-carbonyl)piperidin-1-yl)methyl)phenyl)-5-(2,4-dihydroxy-5-isopropylphenyl)-N-ethyl-4H-1,2,4-triazole-3-carboxamide]	108	
CO[C@H]1/C=C\C=C(/C)C(=O)NC2=CC(=O)C(NCCCCCCNC(=O)c3ncn4c(=O)n(C)nnc34)=C(C[C@@H](C)C[C@H](OC)[C@@H](O)[C@@H](C)/C=C(\C)[C@@H]1OC(N)=O)C2=O [SDC-TRAP-0267, (4E,6Z,8S,9S,10E,12S,13S,14S,16R)-13-hydroxy-8,14-dimethoxy-4,10,12,16-tetramethyl-19-((6-(3-methyl-4-oxo-3,4-dihydroimidazo[5,1-d][1,2,3,5]tetrazine-8-carboxamidohexyl)amino)-3,20,22-trioxo-2-azabicyclo[16.3.1]docosa-1(21),4,6,10,18-pentaen-9-yl carbamate]	63.2	
CC(C)c1cc(-c2nnc(O)n2-c2ccc(CN3CCN(C(=O)COC(=O)Nc4cccc5c4CN(C4CCC(=O)NC4=O)C5=O)CC3)cc2)c(O)cc1O (centres unmarked) [SDC-TRAP-0121, 2-(4-(4-(3-(2,4-dihydroxy-5-isopropylphenyl)-5-hydroxy-4H-1,2,4-triazol-4-yl)benzyl)piperazin-1-yl)-2-oxoethyl(2-(2,6-dioxopiperidin-3-yl)-1-oxoisoindolin-4-yl)carbamate]	89.1	
CCNC(=O)c1nnc(-c2cc(C(C)C)c(O)cc2O)n1-c1ccc(C(=O)N(C)CC(=O)Nc2cccc3c2CN(C2CCC(=O)NC2=O)C3=O)cc1 (centres unmarked) [SDC-TRAP-0147, 5-(2,4-dihydroxy-5-isopropylphenyl)-4-(4-((2-((2-(2,6-dioxopiperidin-3-yl)-1-oxoisoindolin-4-yl)amino)-2-oxoethyl)(methyl)carbamoyl)phenyl)-N-ethyl-4H-1,2,4-triazole-3-carboxamide]	98.1	
CCc1c2c(nc3ccc(O)cc13)-c1cc3c(c(=O)n1C2)COC(=O)C3(CC)OC(=O)N(C)CCCCN1CCN(Cc2ccc(-n3c(O)nnc3-c3cc(C(C)C)c(O)cc3O)cc2)CC1 (centres unmarked) [SDC-TRAP-0055, 4,11-diethyl-9-hydroxy-3,14-dioxo-3,4,12,14-tetrahydro-1H-pyrano[3′,4′:6,7]indolizino[1,2-b]quinolin-4-yl (4-(4-(4-(3-(2,4-dihydroxy-5-isopropylphenyl)-5-hydroxy-4H-1,2,4-triazol-4-yl)benzyl)piperazin-1-yl)butyl)(methyl)carbamate]	103	% Remaining (1 h, 37° C.) ([2]; 10 µM): 103%
CCNC(=O)c1nnc(-c2cc(C(C)C)c(O)cc2O)n1-c1ccc(Oc2ccc(C(=O)NC(Cc3ccccc3)C(=O)Nc3cc(-c4cnoc4-c4cc(OC)c(OC)c(OC)c4)ccc3OC)cc2)cc1 (centres unmarked) [SDC-TRAP-0158]	92.7	
CCNC(=O)c1nnc(-c2cc(C(C)C)c(O)cc2O)n1-c1ccc(CN2CCC(C(=O)N(C)CCCOC(=O)Nc3cccc4c3CN(C3CCC(=O)NC3=O)C4=O)CC2)cc1 (centres unmarked) [SDC-TRAP-0231, 3-(1-(4-(3-(2,4-dihydroxy-5-isopropylphenyl)-5-(ethylcarbamoyl)-4H-1,2,4-triazol-4-yl)benzyl)-N-methylpiperidine-4-carboxamido)propyl (2-(2,6-dioxopiperidin-3-yl)-1-oxoisoindolin-4-yl)carbamate]		% Remaining (1 h, 10 μM) ([2]; 10 μM): 98.3%
